Patent publication US20060005273A1, “Novel maize split-seed explant and methods for in vitro regeneration of maize” (University of Toledo, priority 2004, published 2006)

How the values were obtained:
[1] = test system: embryogenic callus from maize split-seed explant; test: shoot regeneration from embryogenic callus on callus/somatic embryo shoot induction medium; format: cell-based; settings: maximum period of two months
Experimental: Embryogenic calli/somatic embryos are transferred to a “callus/somatic embryo shoot induction medium” (which is an embodiment of the present and is described below) and allowed to develop shoots. The cultures are maintained at 27° C. under 16-hour soft white light. Shoot regeneration frequency is determined by calculating the number of embryogenic calli producing shoots and the number of shoots per callus.
A “callus/somatic embryo shoot induction medium” comprises MS basal salts and B5 vitamins supplemented with a cytokinin, or mixtures of cytokinins. A preferred cytokinin is BAP. The concentration of a cytokinin preferably ranges from 0.1 mg/l to 2.0 mg/l. Preferably the concentration of a cytokinin ranges from […] and most preferably ranges from 0.75 mg/l to 1.0 mg/l. In a preferred embodiment, a cytokinin is BAP is preferably at a concentration of 1.0 mg/l.
White and soft callus formed on the surface of split-seed explants is removed after one week for further growth on “primary calli maintenance medium” (FIG. 3B). Callus initiation from the split-seed is observed in four day old cultures. After one month in culture, highly proliferated calli (FIG. 3C) are transferred to an “embryogenic callus induction medium” containing 2,4-D at 0.1 mg/l and BAP at 0.5 mg/l to maintain embryogenic callus (FIG. 3D). The callus is sub-cultured every two weeks. […]

maize split-seed explant = test: direct multiple shoot formation on split-seed explant shoot induction medium; format: cell-based; settings: BAP alone
Experimental: Another embodiment of the present invention provides a “split-seed explant shoot induction medium.” When a split-seed explant is exposed to a “split-seed explant shoot induction medium” and incubated under a 16-h soft white light at 27° C., the split-seed explant generates at least one shoot. A “split-seed explant shoot induction medium” comprises MS basal salts and B5 vitamins supplemented with a cytokinin or mixtures of cytokinins. A preferred cytokinin is BAP. The concentration of a cytokinin may range from 1.0 mg/l to 6.0 mg/l. Preferably the concentration of a cytokinin ranges from 1.0 mg/l to 5.0 mg/l and more preferably ranges from 1.5 mg/l to 4.5 mg/l. In a preferred embodiment, a cytokinin is BAP and is at a concentration of 3.0 mg/l to 4.0 mg/l. In a preferred embodiment, BAP is preferably at a concentration of 4.0 mg/l. A “split-seed explant shoot induction medium” further comprises glycine at a preferable concentration of 1.0 mg/l, casein hydrolysate at a preferable concentration of 400 mg/l, and sucrose at a preferable concentration of 30 g/l. A “split-seed explant shoot induction medium” may be solidified with 8.0 g/l agar. The pH of the medium is adjusted to 5.8 prior to adding the agar and the medium is autoclaved at 121° C. for 20 minutes.
In another embodiment, a “split-seed explant shoot induction medium” further comprises 6-furfurylaminopurine (“kinetin”). […]

SMILES: c1ccc(CNc2ncnc3nc[nH]c23)cc1 [BAP, 6-benzylamino purine]
- BAP concentration giving the highest number of shoots [1]: 1.0 mg/L
- multiple shoot induction (maize split-seed explant): induces multiple shoots
